From ChEMBL document CHEMBL1201862, “PubChem BioAssay data set” (2004)
“And” between values parts separate entries of the source, which are not always exact repeats. Equal entries are not always repeated.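 Results reflect a 48-hour exposure of cells in 96-well plates to compound at five concentrations. Here, GI50 denotes the concentration required for 50% inhibition of growth.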 The source made the active and inactive calls. Rule as the data show it: active = GI50 up to about 1.1 µM and inactive = higher.

Assays:
Experiment in all cases: DTP human tumour cell line panel, 48 h
786-0 = tested on: 786-0
A498 = tested on: A498
A549 = tested on: A549
CAKI-1 = tested on: CAKI-1
COLO 205 = tested on: COLO 205
DU-145 = tested on: DU-145
EKVX = tested on: EKVX
HCT-15 = tested on: HCT-15
IGROV-1 = tested on: IGROV-1
K562 = tested on: K562
MDA-MB-231 = tested on: MDA-MB-231
NCI-H226 = tested on: NCI-H226
NCI/ADR-RES = tested on: NCI/ADR-RES
OVCAR-5 = tested on: OVCAR-5
SF-268 = tested on: SF-268
SK-MEL-28 = tested on: SK-MEL-28
SK-MEL-5 = tested on: SK-MEL-5
SN12C = tested on: SN12C
SNB-75 = tested on: SNB-75

SMILES	GI50 (786-0)	GI50 (A498)	GI50 (A549)	GI50 (CAKI-1)	GI50 (COLO 205)	GI50 (DU-145)	GI50 (EKVX)	GI50 (HCT-15)	GI50 (IGROV-1)	GI50 (K562)	GI50 (MDA-MB-231)	GI50 (NCI-H226)	GI50 (NCI/ADR-RES)	GI50 (OVCAR-5)	GI50 (SF-268)	GI50 (SK-MEL-28)	GI50 (SK-MEL-5)	GI50 (SN12C)	GI50 (SNB-75)
C=CC(=O)N1C/C(=C\c2ccc([N+](=O)[O-])cc2)C(=O)/C(=C/c2ccc([N+](=O)[O-])cc2)C1	< 0.0203 µM (active)	0.28 µM (active)	0.427 µM (active)	0.128 µM (active)	0.0483 µM (active)	0.621 µM (active)	0.243 µM (active)	0.0253 µM	0.0728 µM (active)	0.0982 µM (active)	0.161 µM (active)	0.2 µM (active)	0.258 µM (active)	0.29 µM (active)	< 0.0403 µM (active)	0.275 µM (active)	0.719 µM (active)	0.195 µM (active)	
CC(C)(Br)C(Br)CCC1(C2CO2)CO1 (stereo not drawn)	> 5 µM (inactive)	> 5 µM (inactive)	> 5 µM (inactive)	> 5 µM (inactive)	> 5 µM (inactive)	> 5 µM (inactive)	> 5 µM (inactive)	> 5 µM	> 5 µM (inactive)	> 5 µM (inactive)	> 5 µM (inactive)	> 5 µM (inactive)	> 5 µM (inactive)		> 5 µM (inactive)	> 5 µM (inactive)	> 5 µM (inactive)	> 5 µM (inactive)	> 5 µM (inactive)
CN(Cc1ccccc1)c1cc(=O)n(C)c(=O)[nH]1	> 100 µM (inactive)	58.2 µM (inactive)	> 100 µM (inactive)	> 100 µM (inactive)	> 100 µM (inactive)	> 100 µM (inactive)		> 100 µM		> 100 µM (inactive)	> 100 µM (inactive)	> 100 µM (inactive)	> 100 µM (inactive)	> 100 µM (inactive)	> 100 µM (inactive)	> 100 µM (inactive)	> 100 µM (inactive)	> 100 µM (inactive)	
CCOC(=O)/C(C(N)=O)=C(O)/C(O)=C/C(=O)c1ccc(Cl)cc1	17.2 µM (inactive)	> 100 µM (inactive)	32.4 µM (inactive)	24.1 µM (inactive)	17.8 µM (inactive)	14.8 µM (inactive)	25.9 µM (inactive)	17.7 µM	18 µM (inactive)		17.3 µM (inactive)	23.2 µM (inactive)	21.4 µM (inactive)	23.5 µM (inactive)	20.6 µM (inactive)	24.8 µM (inactive)	19.9 µM (inactive)	16.5 µM (inactive)	12.8 µM (inactive)
O=C1/C(=C/c2ccco2)NC(=S)N1CN1CCOCC1	> 100 µM (inactive)	> 100 µM (inactive)	> 100 µM (inactive)		> 100 µM (inactive)	> 100 µM (inactive)	> 100 µM (inactive)	> 100 µM	> 100 µM (inactive)	> 100 µM (inactive)	> 100 µM (inactive)	> 100 µM (inactive)	> 100 µM (inactive)	> 100 µM (inactive)	> 100 µM (inactive)	> 100 µM (inactive)	> 100 µM (inactive)	> 100 µM (inactive)	> 100 µM (inactive)
C=C1C(=O)OC2CC1C(OC(C)=O)C/C(C)=C/CC/C(C)=C\CCC2(C)O (stereo not drawn)	3.24 µM (inactive) and 2.6 µM (inactive)	5.22 µM (inactive) and 5.52 µM (inactive)	16 µM (inactive) and 17.2 µM (inactive)	4.34 µM (inactive) and 2.96 µM (inactive)	3.98 µM (inactive) and 3.92 µM (inactive)	3.95 µM (inactive) and 5.77 µM (inactive)	3.81 µM (inactive) and 3.73 µM (inactive)	1.56 µM and 3.04 µM		1.39 µM (inactive) and 2.54 µM (inactive)	7.13 µM (inactive) and 8.95 µM (inactive)		3.66 µM (inactive) and 3.49 µM (inactive)	10.9 µM (inactive) and 16.5 µM (inactive)	5.24 µM (inactive) and 5.45 µM (inactive)	3.19 µM (inactive) and 2.95 µM (inactive)		4.55 µM (inactive) and 3.09 µM (inactive)	11.2 µM (inactive) and 10.8 µM (inactive)
CNC(=S)N/N=C1\C(=O)N(CN2CCOCC2)c2ccc([N+](=O)[O-])cc21	15.3 µM (inactive)	24.5 µM (inactive)	31.9 µM (inactive)	17.7 µM (inactive)	26.9 µM (inactive)	13.7 µM (inactive)	15.6 µM (inactive)	12.9 µM		> 100 µM (inactive)	11.9 µM (inactive)	15.8 µM (inactive)	16.3 µM (inactive)	22.8 µM (inactive)	20.2 µM (inactive)	20.7 µM (inactive)	32.5 µM (inactive)	16.4 µM (inactive)	
Cc1ccc(-n2cnc3c(N)nc(N)nc32)cc1	> 100 µM (inactive)	> 100 µM (inactive)	69.5 µM (inactive)	> 100 µM (inactive)	> 100 µM (inactive)	> 100 µM (inactive)	81.5 µM (inactive)	> 100 µM	> 100 µM (inactive)		> 100 µM (inactive)	> 100 µM (inactive)	> 100 µM (inactive)	> 100 µM (inactive)	> 100 µM (inactive)	> 100 µM (inactive)	> 100 µM (inactive)	> 100 µM (inactive)	1.53 µM (inactive)
CN(C(=O)Cc1cc(Cl)c(Cl)cc1NC(=O)CCCN)[C@H]1CCCC[C@@H]1N1CCCC1	19.5 µM (inactive)	17.3 µM (inactive)	29.5 µM (inactive)	> 100 µM (inactive)	17.9 µM (inactive)	> 100 µM (inactive)	45.1 µM (inactive)	> 100 µM	> 100 µM (inactive)	> 100 µM (inactive)	28.3 µM (inactive)	27 µM (inactive)	> 100 µM (inactive)	37.8 µM (inactive)	13.9 µM (inactive)	17.1 µM (inactive)	16.1 µM (inactive)	63.5 µM (inactive)	
N=C(c1ccc2ccccc2c1)c1ccccc1Cc1ccccc1	54.6 µM (inactive)	82.8 µM (inactive)	27.7 µM (inactive)	55 µM (inactive)	> 100 µM (inactive)	29.8 µM (inactive)	17.3 µM (inactive)	28.8 µM	35.9 µM (inactive)	29.9 µM (inactive)	> 100 µM (inactive)	28 µM (inactive)	37.2 µM (inactive)	36.8 µM (inactive)		62.4 µM (inactive)	37.2 µM (inactive)	34.8 µM (inactive)	
COC1=C(Br)[C@H](O)[C@@]2(C=C1Br)CC(C(=O)NCCCOc1c(Br)cc(C(O)CNC(C)=O)cc1Br)=NO2 (stereo partly drawn) [APLYSINAMISINE III]	> 10 µM (inactive)	> 10 µM (inactive)	> 10 µM (inactive)	> 10 µM (inactive)	> 10 µM (inactive)	> 10 µM (inactive)		> 10 µM	> 10 µM (inactive)	2.24 µM (inactive)	> 10 µM (inactive)	> 10 µM (inactive)	> 10 µM (inactive)	> 10 µM (inactive)	> 10 µM (inactive)	> 10 µM (inactive)	4.86 µM (inactive)	> 10 µM (inactive)	2.79 µM (inactive)
COC(=O)c1c(O)ccc2c1c1c(n2Cc2ccccn2)C(=O)c2ccccc2C1=O	30.9 µM (inactive)	> 100 µM (inactive)	29.8 µM (inactive)	80.5 µM (inactive)	14.5 µM (inactive)	42.4 µM (inactive)	36.7 µM (inactive)	46 µM	26.4 µM (inactive)	> 100 µM (inactive)	> 100 µM (inactive)	70.1 µM (inactive)	41.3 µM (inactive)	56.8 µM (inactive)	35.9 µM (inactive)	19.2 µM (inactive)	50.5 µM (inactive)	> 100 µM (inactive)	
O=C(O)c1cccc(CN2CCCCC2)c1	> 100 µM (inactive)	> 100 µM (inactive)	> 100 µM (inactive)	> 100 µM (inactive)	> 100 µM (inactive)	> 100 µM (inactive)	> 100 µM (inactive)	> 100 µM	> 100 µM (inactive)	> 100 µM (inactive)	> 100 µM (inactive)	> 100 µM (inactive)	> 100 µM (inactive)	> 100 µM (inactive)	> 100 µM (inactive)	> 100 µM (inactive)	> 100 µM (inactive)	> 100 µM (inactive)	
COc1cc(C2C(C#N)=C(N)OC3=C2CCS(=O)(=O)c2ccc(C)cc23)cc(OC)c1OC (stereo not drawn)	> 100 µM (inactive)	> 100 µM (inactive)	> 100 µM (inactive)	> 100 µM (inactive)	> 100 µM (inactive)	> 100 µM (inactive)		> 100 µM	> 100 µM (inactive)	> 100 µM (inactive)	> 100 µM (inactive)	> 100 µM (inactive)	> 100 µM (inactive)	> 100 µM (inactive)	> 100 µM (inactive)	> 100 µM (inactive)	> 100 µM (inactive)	> 100 µM (inactive)	> 100 µM (inactive)
CCc1nc(N)nc(N)c1-c1ccc(Cl)c(Cl)c1 [ETOPRINE]	0.653 µM (active)	> 100 µM (inactive)	0.789 µM (active)	32 µM (inactive)	8.43 µM (inactive)	11 µM (inactive)	20.9 µM (inactive)	3.75 µM	2.96 µM (inactive)		> 100 µM (inactive)		1.47 µM (inactive)	7.06 µM (inactive)	6.62 µM (inactive)	> 100 µM (inactive)	4.65 µM (inactive)	6.79 µM (inactive)	35.1 µM (inactive)
